Laboratory results taken from US20100115635A1, “Methods for Assessing the Delivery of Exogenous Agents” (Abbott Laboratories, priority 2007, published 2010).

Tested on: MDA-tetR-ODC/Luc liver tumors
Assay: bioluminescence imaging of MDA-tetR-ODC/Luc liver tumors
Format: in vivo, mice
Conditions: 4 days after doxycycline treatment
Source text: A MDA-tetR-ODC/Luc cell line was created from MDA-MB435-SLM-derived cell line with a stably integrated tetR-ODC expression cassette and a tet-responsive firefly luciferase reporter. FIG. 6A). The MDA-tetR-ODC/Luc cells were inoculated into skid mice to establish liver tumors. The mice were imaged before doxycycline treatment (top panel of FIG. 6A) or 4 days after doxycycline treatment (bottom panel of FIG. 6A). […] FIG. 6B) Monitoring target knockdown in the MDA-tetR-ODC/Luc cell-derived liver tumors using imaging. The MDA-tetR-ODC/Luc cells were inoculated into skid mice to establish liver tumors. […] Mice were imaged before dosing and 2 days after the last dose. […] The mice were imaged before doxycycline treatment (top panel of FIG. 6B) or 4 days after doxycycline treatment (bottom panel of FIG. 6B).

C[C@H]1c2cccc(O)c2C(=O)C2=C(O)[C@]3(O)C(=O)C(C(N)=O)=C(O)[C@@H](N(C)C)[C@@H]3[C@@H](O)[C@@H]21 [doxycycline]
increase of luminescent signal compared to untreated mice: more than 100 fold
